# Data reported in patent publication US20250320228A1, “PYRIDO[3,2-D]PYRIMIDINES AS HPK1 INHIBITORS” (Merck Patent GmbH, priority 2022, published 2025).
# Read-outs that look alike come from different tables or passages of the source.
# Key:
# HPK1 pSLP76 (Ser376) = assay: Cellular assay phospho-SLP-76 (Ser376); type: cell-based, human; conditions: read-out: HPK1 pSLP76 IC50
# Experimental: Cellular Assay—Phospho-SLP-76 (Ser376).
# Inhibition of HPK1 enzymatic activity in cells was determined by detection of SLP76 phosphorylation at Ser376 residue in lysate from Jurkat (human) and EL-4 (mouse) cells. Jurkat and EL-4 cells express both HPK1 and SLP76 naturally. All cells were cultured in RPMI 1640 media containing 10% heat inactivated fetal bovine serum (FBS) and 1× Penicillin-Streptomycin. In either Jurkat or El-4 assay, cells were pre-incubated with test compounds prior to T cell stimulation by respective αCD3/αCD28 Dynabeads™. For detection, plates were read on the Envision and percent inhibition and IC50 were determined by Smart fit in Genedata Analyzer.
# For Jurkat cells: 35 μL cell suspension were dispensed at a density of 30,000 cells/well in 384-well plates containing HBSS (Gibco, 14025076)+0.1% BSA). 10-point logarithmic serial dilution of test compounds in DMSO were prepared by a Hamilton automated liquid handling robot and 35 nL was transferred into each well by an Echo liquid handler. After 60 min. pre-incubation, the cells were stimulated by adding 5 μL human T activator αCD3/αCD28 Dynabeads™ (Gibco, 11132D) at 1.2×107 beads/ml for 15 minutes at 37° C. Detection of Ser376 phosphorylation status was accomplished by first adding 10 μL of 5× AlphaLISA lysis buffer (Perkin Elmer, ALSU-PSLP-A500) to each well of the cell plate using a Multidrop Combi (5840300), followed by 20 minutes shaking. 10 μL cell lysate from each treatment were then transferred to a white 384-well plate (Corning 3572) and incubated with AlphaLISA acceptor beads for one hour (AlphaLISA SureFire Ultra p-SLP76 (Ser376), Perkin Elmer, ALSU-PSLP-A500), and donor beads for additional 2 hours at room temperature in the dark. […]
# [1] = target: full-length human HPK1 (MAP4K1) (Homo sapiens (Human), UniProt Q92918); assay: HPK1 kinase assay (biochemical, ADP-Glo); conditions: read-out: HPK1 enzymatic IC50
# full-length human HPK1 (MAP4K1), sequence (Q92918 whole entry): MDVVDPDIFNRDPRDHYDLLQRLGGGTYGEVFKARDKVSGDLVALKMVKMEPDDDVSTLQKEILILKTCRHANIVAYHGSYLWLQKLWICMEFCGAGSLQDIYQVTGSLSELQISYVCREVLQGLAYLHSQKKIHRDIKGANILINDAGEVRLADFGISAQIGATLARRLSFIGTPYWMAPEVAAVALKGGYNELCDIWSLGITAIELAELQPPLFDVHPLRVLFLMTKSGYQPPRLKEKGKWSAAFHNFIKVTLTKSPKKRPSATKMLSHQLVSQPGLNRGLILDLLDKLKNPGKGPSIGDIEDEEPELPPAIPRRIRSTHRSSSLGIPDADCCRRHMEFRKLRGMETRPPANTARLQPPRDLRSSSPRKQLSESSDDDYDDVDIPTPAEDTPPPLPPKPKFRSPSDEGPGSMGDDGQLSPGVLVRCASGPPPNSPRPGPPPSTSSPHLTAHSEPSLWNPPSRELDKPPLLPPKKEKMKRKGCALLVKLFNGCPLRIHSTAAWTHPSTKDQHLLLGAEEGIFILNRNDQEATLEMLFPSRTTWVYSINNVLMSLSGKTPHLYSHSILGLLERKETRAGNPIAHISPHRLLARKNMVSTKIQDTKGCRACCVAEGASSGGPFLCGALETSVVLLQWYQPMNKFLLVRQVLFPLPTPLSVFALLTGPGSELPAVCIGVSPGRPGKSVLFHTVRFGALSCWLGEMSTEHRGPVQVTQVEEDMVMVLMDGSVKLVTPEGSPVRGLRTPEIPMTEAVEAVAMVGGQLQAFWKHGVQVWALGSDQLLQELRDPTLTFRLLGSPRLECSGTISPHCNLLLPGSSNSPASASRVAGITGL
# From the text: HPK1 kinase assay (Biochemical assay).
# A recombinant fusion protein consisting of full-length human HPK1 (MAP4K1) with an N-terminal Glutatione S-transferase (GST) tag was produced in insect cells Sf21 using the baculovirus expression system. GST-HPK1 protein was purified from cell lysates by glutathione Sepharose affinity chromatography. The assay is run in three continuous steps: 1) the HPK1 enzymatic kinase reaction, 2) an ATP depletion, and 3) the ADP detection, the steps 2 and 3 are performed with ADP-Glo™ Kinase Assay kit from Promega (V9101). Test compounds were prepared by 10-point serial dilution in dimethyl sulfoxide (DMSO) and 100 nL of each dilution was spotted onto a 384-well Optiplate (Perkin Elmer and Cat #6007299) by Labcyte Echo. 5 μL kinase reaction buffer (0.02% Brij-35, 2 mM DTT, 50 mM HEPES pH 7.5, MgCl2 10 mM, BSA 0.01% and β-glycerophosphate 12.5 mM) containing HPK1 (3.2 nM) enzyme was transferred to each well and incubated for 15 minutes at room temperature at 60% humidity. The enzymatic reaction was started by adding 5 μl of Start-Mix (10 μM ATP and 3.235 μM MBP). After 120 minutes, the reaction was stopped by adding 5 μL of ADP-Glo reagent (Promega, V9101) and incubating for 40 min. in the dark at 23° C. To determine the level of ADP, 10 μl ADP-Glo Detection solution was added and incubated for 1 hour at 23° C. in the dark. The plate was transferred to a Perkin Elmer EnVision (2104 Multilabel Reader) for luminescence detection and percent inhibition activity and IC50 value were determined using Genedata Screener.
# [2] = SLP76 Ser376 phosphorylation after αCD3/αCD28 stimulation, Jurkat (human) or EL-4 (mouse) cells, table does not say which
# [3] = GST-HPK1 3.2 nM, 10 μM ATP, MBP substrate, ADP-Glo
Compound,IC50 (HPK1 pSLP76 (Ser376); [2]) [nM],"IC50 [1, 3] [nM]","IC50 (HPK1 pSLP76 (Ser376); Homo sapiens, Jurkat) [nM]",IC50 [1] [nM]
"COCCOc1ccc(-c2cc(C(N)=O)c3ncnc(N[C@H]4CCCNC4)c3n2)cn1 [Example 55, (S)-6-(6-(2-methoxyethoxy)pyridin-3-yl)-4-(piperidin-3-ylamino)pyrido[3,2-d]pyrimidine-8-carboxamide]",> 1000,< 100,,
"COC(C)(C)COc1ccc(-c2cc(C(N)=O)c3ncnc(N[C@H]4CCCNC4)c3n2)cc1 [Example 61, 6-[4-(2-methoxy-2-methylpropoxy)phenyl]-4-[(3S)-piperidin-3-ylamino]pyrido[3,2-d]pyrimidine-8-carboxamide]",< 500,< 100,,
"CCn1cc(-c2cc(C(N)=O)c3ncnc(N[C@@H]4CNC[C@@H](F)C4)c3n2)c(C)n1 [Example 9, 6-(1-ethyl-3-methyl-1H-pyrazol-4-yl)-4-(((3S,5S)-5-fluoropiperidin-3-yl)amino)pyrido[3,2-d]pyrimidine-8-carboxamide]",< 500,< 100,,
"CS(=O)(=O)Cc1ccc(-c2cc(C(N)=O)c3ncnc(N[C@H]4CCCNC4)c3n2)cc1 [Example 54, (S)-6-(4-((methylsulfonyl)methyl)phenyl)-4-(piperidin-3-ylamino)pyrido[3,2-d]pyrimidine-8-carboxamide]",> 1000,< 100,,
"NC(=O)c1cc(-c2ccc(C3(O)CC3)cc2)nc2c(N[C@H]3CCCNC3)ncnc12 [Example 58, 6-[4-(1-hydroxycyclopropyl)phenyl]-4-[(3S)-piperidin-3-ylamino]pyrido[3,2-d]pyrimidine-8-carboxamide]",< 500,< 100,,
"NC(=O)c1cc(-c2cnn(C3CC3)c2)nc2c(N[C@@H]3CNC[C@@H](F)C3)ncnc12 [Example 36, 6-(1-cyclopropyl-1H-pyrazol-4-yl)-4-(((3S,5S)-5-fluoropiperidin-3-yl)amino)pyrido[3,2-d]pyrimidine-8-carboxamide]",500 to 1000,< 100,,
"NC(=O)c1cc(-c2ccc(CN3CCOCC3)cc2)nc2c(N[C@H]3CCCNC3)ncnc12 [Example 30, 6-[4-(morpholin-4-ylmethyl)phenyl]-4-[(3S)-piperidin-3-ylamino]pyrido[3,2-d]pyrimidine-8-carboxamide]",< 500,< 100,,
"CC(C)(O)COc1ccc(-c2cc(C(N)=O)c3ncnc(N[C@@H]4CNCC[C@@H]4F)c3n2)cc1 [Example 38, 4-(((3R,4S)-4-fluoropiperidin-3-yl)amino)-6-(4-(2-hydroxy-2-methylpropoxy)phenyl)pyrido[3,2-d]pyrimidine-8-carboxamide]",< 500,< 100,,
"NC(=O)c1cc(-c2ccc(CN3CCOC(F)(F)C3)cc2)nc2c(N[C@H]3CCCNC3)ncnc12 [Example 70, 6-[4-[(2,2-difluoromorpholin-4-yl)methyl]phenyl]-4-[(3S)-piperidin-3-ylamino]pyrido[3,2-d]pyrimidine-8-carboxamide]",500 to 1000,< 100,,
"NC(=O)c1cc(-c2ccc(OCC3(O)CC3)cc2)nc2c(N[C@@H]3CNC[C@@H](F)C3)ncnc12 [Example 34, 4-(((3S,5S)-5-fluoropiperidin-3-yl)amino)-6-(4-((1-hydroxycyclopropyl)methoxy)phenyl)pyrido[3,2-d]pyrimidine-8-carboxamide]",,,< 500,< 100
"CC1(N2CCOCC2)CC=C(c2cc(C(N)=O)c3ncnc(N[C@H]4CCCNC4)c3n2)CC1 (stereo partly drawn) [Example 74, 6-[4-methyl-4-(morpholin-4-yl)cyclohex-1-en-1-yl]-4-{[(3S)-piperidin-3-yl]amino}pyrido[3,2-d]pyrimidine-8-carboxamide]",> 1000,< 100,,
"NC(=O)c1cc(-c2ccc(C3(N4CCOCC4)CC3)cc2)nc2c(N[C@H]3CCCNC3)ncnc12 [Example 28, 6-[4-[1-(morpholin-4-yl)cyclopropyl]phenyl]-4-[(3S)-piperidin-3-ylamino]pyrido [3,2-d]pyrimidine-8-carboxamide]",< 500,< 100,,
"CC(C)(O)COc1ccc(-c2cc(C(N)=O)c3ncnc(N[C@@H]4CNCC[C@H]4F)c3n2)cc1 [Example 42, 4-(((3R,4R)-4-fluoropiperidin-3-yl)amino)-6-(4-(2-hydroxy-2-methylpropoxy)phenyl)pyrido[3,2-d]pyrimidine-8-carboxamide]",< 500,< 100,,
"NC(=O)c1cc(-c2cnn(C3CCOCC3)c2)nc2c(N[C@@H]3CNC[C@@H](F)C3)ncnc12 [Example 4, 4-(((3S,5S)-5-fluoropiperidin-3-yl)amino)-6-(1-(tetrahydro-2H-pyran-4-yl)-1H-pyrazol-4-yl)pyrido[3,2-d]pyrimidine-8-carboxamide]",500 to 1000,< 100,,
"C[C@@H](O)COc1ccc(-c2cc(C(N)=O)c3ncnc(N[C@H]4CCCNC4)c3n2)cc1 [Example 51, 6-(4-((R)-2-hydroxypropoxy)phenyl)-4-(((S)-piperidin-3-yl)amino)pyrido[3,2-d]pyrimidine-8-carboxamide]",,,< 500,< 100
"CC(C)(O)COc1ccc(-c2cc(C(N)=O)c3ncnc(N[C@@H]4CNC[C@@H](F)C4)c3n2)c(C#N)c1 [Example 1, 6-(2-cyano-4-(2-hydroxy-2-methylpropoxy)phenyl)-4-(((3S,5S)-5-fluoropiperidin-3-yl)amino)pyrido[3,2-d]pyrimidine-8-carboxamide]",< 500,< 100,,
"NC(=O)c1cc(-c2ccc(CN3CC4CCC(C3)O4)cc2)nc2c(N[C@H]3CCCNC3)ncnc12 [Example 65, 6-(4-[8-oxa-3-azabicyclo [3.2.1]octan-3-ylmethyl]phenyl)-4-[(3S)-piperidin-3-ylamino]pyrido[3,2-d]pyrimidine-8-carboxamide]",< 500,< 100,,
"NC(=O)c1cc(-c2cc(F)c(OCC3(O)CCOCC3)c(F)c2)nc2c(N[C@@H]3CNC[C@@H](F)C3)ncnc12 [Example 37, 6-(3,5-difluoro-4-((4-hydroxytetrahydro-2H-pyran-4-yl)methoxy)phenyl)-4-(((3S,5S)-5-fluoropiperidin-3-yl)amino)pyrido[3,2-d]pyrimidine-8-carboxamide]",< 500,< 100,,
"NC(=O)c1cc(-c2ccc(F)cc2)nc2c(N[C@H]3CCCNC3)ncnc12 [Example 76, 6-(4-fluorophenyl)-4-{[(3S)-piperidin-3-yl]amino}pyrido[3,2-d]pyrimidine-8-carboxamide]",< 500,< 100,,
"COCCOc1ccc(-c2cc(C(N)=O)c3ncnc(N[C@H]4CNCC[C@@H]4F)c3n2)cc1 [Example 49, 4-(((3S,4S)-4-fluoropiperidin-3-yl)amino)-6-(4-(2-methoxyethoxy)phenyl)pyrido[3,2-d]pyrimidine-8-carboxamide]",> 1000,> 1000,,
"CC(=O)c1ccc(-c2cc(C(N)=O)c3ncnc(N[C@@H]4CNC[C@@H](F)C4)c3n2)s1 [Example 5, 6-(5-acetylthiophen-2-yl)-4-(((3S,5S)-5-fluoropiperidin-3-yl)amino)pyrido[3,2-d]pyrimidine-8-carboxamide]",< 500,< 100,,
"COCCOc1ccc(-c2cc(C(N)=O)c3ncnc(N[C@@H]4CNCC[C@H]4F)c3n2)cc1 [Example 48, 4-(((3R,4R)-4-fluoropiperidin-3-yl)amino)-6-(4-(2-methoxyethoxy)phenyl)pyrido[3,2-d]pyrimidine-8-carboxamide]",< 500,< 100,,
